From a compilation of properties of binary mixtures (doi:10.1016/j.jct.2009.06.023)

Test: xn = mol fraction of the nth substance listed
Settings: 101 kPa

CCCC[n+]1ccn(C)c1.O=[N+]([O-])[O-] + CCO
viscosity [mPa·s]
Settings | x2 = 0.11 | x2 = 0.254 | x2 = 0.352 | x2 = 0.447 | x2 = 0.556 | x2 = 0.663 | x2 = 0.748 | x2 = 0.852
283.15 K | 260 | 120.4 | 66 | – | 21.24 | 10.88 | 7.45 | 3.9
288.15 K | 190 | 90.7 | – | 28.43 | 17.96 | – | – | 3.47
293.15 K | 139.3 | – | 41.09 | 23.18 | 15.21 | 8.84 | – | 3.08
298.15 K | – | 53.62 | 32.83 | 19.16 | 13.06 | – | – | 2.75
303.15 K | 86.8 | 43.08 | 26.28 | – | 11.34 | 6.71 | 4.28 | –
308.15 K | – | 35.32 | – | 13.73 | 9.83 | – | 3.76 | 2.31
313.15 K | – | – | 17.78 | 11.88 | 9.05 | 5 | 3.38 | 2.13
318.15 K | 38.81 | – | 15.48 | 10.26 | 8.02 | 4.49 | 3.08 | –
323.15 K | 32.11 | 20.84 | 14.06 | 8.91 | 6.96 | 4.04 | 2.81 | 1.75
328.15 K | 26.9 | 17.9 | 12.51 | – | 6.08 | 3.7 | 2.57 | 1.65
333.15 K | 22.91 | – | 10.88 | 7.7 | 5.49 | 3.39 | 2.38 | 1.59
